Patent US20220089575A1, “FARNESOID X RECEPTOR AGONISTS AND USES THEREOF” (Metacrine, Inc., priority 2017, published 2022)

Target: T1, hFXR (Homo sapiens, UniProt Q96RI1)
T1 construct: expressed in transfected cells; host or cells: CV-1 cells
T1 sequence (Q96RI1 1-486): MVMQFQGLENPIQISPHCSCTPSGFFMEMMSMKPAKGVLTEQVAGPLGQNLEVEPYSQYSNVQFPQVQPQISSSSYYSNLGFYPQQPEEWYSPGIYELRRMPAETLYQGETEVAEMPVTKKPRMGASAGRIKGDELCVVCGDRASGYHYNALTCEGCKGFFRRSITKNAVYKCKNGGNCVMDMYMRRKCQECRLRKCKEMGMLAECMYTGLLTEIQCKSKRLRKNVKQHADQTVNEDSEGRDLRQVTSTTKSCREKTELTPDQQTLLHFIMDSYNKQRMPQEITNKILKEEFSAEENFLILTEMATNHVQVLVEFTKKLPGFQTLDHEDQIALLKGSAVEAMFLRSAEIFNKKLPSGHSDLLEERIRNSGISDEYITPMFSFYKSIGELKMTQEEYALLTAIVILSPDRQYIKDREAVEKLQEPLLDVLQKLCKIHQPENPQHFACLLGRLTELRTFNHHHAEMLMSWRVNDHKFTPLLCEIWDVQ
T1 sequence (P19793 1-462 partner): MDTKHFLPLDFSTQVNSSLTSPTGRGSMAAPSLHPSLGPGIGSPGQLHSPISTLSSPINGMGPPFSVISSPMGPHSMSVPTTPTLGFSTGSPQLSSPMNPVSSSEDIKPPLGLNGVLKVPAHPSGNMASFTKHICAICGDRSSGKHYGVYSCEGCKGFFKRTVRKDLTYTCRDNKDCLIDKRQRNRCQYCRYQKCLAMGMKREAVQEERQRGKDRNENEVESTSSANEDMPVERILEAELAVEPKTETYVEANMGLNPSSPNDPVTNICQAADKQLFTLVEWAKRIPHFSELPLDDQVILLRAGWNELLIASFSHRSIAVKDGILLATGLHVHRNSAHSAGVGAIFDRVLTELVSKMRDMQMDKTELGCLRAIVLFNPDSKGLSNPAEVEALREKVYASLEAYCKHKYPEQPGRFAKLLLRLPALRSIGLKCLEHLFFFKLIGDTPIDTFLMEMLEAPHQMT
Test: In Vitro FXR Assay (TK): TK-ECRE-luc reporter in transfected CV-1 cells
Type: cell-based
Conditions: 18 hrs, luminescence, maximum efficacy of <25% of the Fexarmine control classified as '+'
Procedure, shortened: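 CV-1 cells transiently co-transfected with hFXR, hRXR, TK-ECRE-luc and pCMX-YFP plasmids in charcoal-stripped serum medium. Serially diluted compounds added, cells incubated 18 h at 37° C, then lysed and luminescence read.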

EC50 [nM]	Structure (SMILES)
≤ 250	COc1ccc([C@H]2CC[C@H](CN(c3cc(-c4cnn(C5CC5)c4)ccn3)C(=O)[C@H]3CC[C@H](CC(=O)O)CC3)CC2)cc1C [Compound 20.10, 2-(trans-4-((4-(1-Cyclopropyl-1H-pyrazol-4-yl)pyridin-2-yl)((trans-4-(4-methoxy-3-methylphenyl)cyclohexyl)methyl)carbamoyl)cyclohexyl)acetic acid]
≤ 250	COc1ccc([C@H]2CC[C@H](CN(c3cc(-c4coc(C(C)C)n4)ccn3)C(=O)[C@H]3CC[C@H](OC(=O)N4CC(OC)C4)CC3)CC2)nc1C [Compound 7.82, trans-4-((4-(2-Isopropyloxazol-4-yl)pyridine-2-yl)((trans-4-(5-methoxy-6-methylpyridin-2-yl)cyclohexyl)methyl)carbamoyl)cyclohexyl 3-methoxyazetidine-1-carboxylate]
≤ 250	COc1ccc([C@H]2CC[C@H](CN(c3cc(-c4coc(C5CC5)n4)ccn3)C(=O)[C@H]3CC[C@H](OC(=O)N4CCN(C(C)C)CC4)CC3)CC2)nc1C [Compound 6.82, trans-4-((4-(2-Cyclopropyloxazol-4-yl)pyridine-2-yl)((trans-4-(5-methoxy-6-methylpyridin-2-yl)cyclohexyl)methyl)carbamoyl)cyclohexyl 4-isopropylpiperazine-1-carboxylate]
250 to 1000	COc1ccc([C@H]2CC[C@H](CN(c3cccc(-c4cnn(C5CC5)c4)c3)C(=O)[C@H]3CC[C@H](NC(=O)C[S+](C)[O-])CC3)CC2)cc1C (stereo partly drawn) [Compound 31.04, trans-N-(3-(1-Cyclopropyl-1H-pyrazol-4-yl)phenyl)-N-((trans-4-(4-methoxy-3-methylphenyl)cyclohexyl)methyl)-4-(2-(methylsulfinyl)acetamido) cyclohexanecarboxamide]
≤ 250	COc1ccc([C@H]2CC[C@H](CN(c3cc(-c4coc(C5CC5)n4)ccn3)C(=O)[C@H]3CC[C@H](CC(=O)O)CC3)CC2)cc1C#N [Compound 21.12, 2-(trans-4-(((trans-4-(3-Cyano-4-methoxyphenyl)cyclohexyl)methyl)(4-(2-cyclopropyloxazol-4-yl)pyridin-2-yl)carbamoyl)cyclohexyl)acetic acid]
≤ 250	COc1ccc([C@H]2CC[C@H](CN(c3cccc(-c4cnn(C(C)C)c4)c3)C(=O)[C@H]3CC[C@H](CCC(=O)O)CC3)CC2)cc1C [Compound 20.16, 3-(trans-4-((3-(1-Isopropyl-1H-pyrazol-4-yl)phenyl)((trans-4-(4-methoxy-3-methylphenyl)cyclohexyl)methyl)carbamoyl)cyclohexyl)propanoic acid]
≤ 250	COc1ccc([C@H]2CC[C@H](CN(c3cc(-c4cnn(C5CC5)c4)ccn3)C(=O)[C@H]3CC[C@H](OC(=O)N4CC(O)C4)CC3)CC2)cc1C#N [Compound 7.21, trans-4-(((trans-4-(3-Cyano-4-methoxyphenyl)cyclohexyl)methyl)(4-(1-cyclopropyl-1H-pyrazol-4-yl)pyridin-2-yl)carbamoyl)cyclohexyl 3-hydroxyazetidine-1-carboxylate]
≤ 250	CNC(=O)O[C@H]1CC[C@H](C(=O)N(CC23CCC(c4ccc(OC)c(C)c4)(CC2)CC3)c2cccc(-c3cnn(C4CC4)c3)c2)CC1 [Compound 1.05, 4-((3-(1-Cyclopropyl-1H-pyrazol-4-yl)phenyl)((4-(4-methoxy-3-methylphenyl)bicyclo[2.2.2]octan-1-yl)methyl)carbamoyl)cyclohexyl trans-methylcarbamate]
≤ 250	CNC(=O)O[C@H]1CC[C@H](C(=O)N(C[C@H]2CC[C@H](c3ccc(OC)c(C)n3)CC2)c2cccc(-c3cnn(C(C)C)c3)c2)CC1 [Compound 1.10, trans-4-((3-(1-Isopropyl-1H-pyrazol-4-yl)phenyl)((trans-4-(5-methoxy-6-methylpyridin-2-yl)cyclohexyl)methyl)carbamoyl)cyclohexyl methylcarbamate]
≤ 250	CNC(=O)O[C@H]1CC[C@H](C(=O)N(C[C@H]2CC[C@H](c3ccc(OC)c(C#N)n3)CC2)c2cc(-c3cnn(C(C)C)c3)ccn2)CC1 [Compound 5.26, trans-4-(((trans-4-(6-Cyano-5-methoxypyridin-2-yl)cyclohexyl)methyl)(4-(1-isopropyl-1H-pyrazol-4-yl)pyridin-2-yl)carbamoyl)cyclohexyl methylcarbamate]
≤ 250	COc1ccc([C@H]2CC[C@H](CN(c3cc(-c4cnn(C(C)C)c4)ccn3)C(=O)[C@H]3CC[C@H](OC(=O)NC(C)C)CC3)CC2)nc1C [Compound 7.44, trans-4-((4-(1-Isopropyl-1H-pyrazol-4-yl)pyridin-2-yl)((trans-4-(5-methoxy-6-methylpyridin-2-yl)cyclohexyl)methyl)carbamoyl)cyclohexyl isopropylcarbamate]
≤ 250	COc1ccc([C@H]2CC[C@H](CN(c3cccc(-c4cnc(C5CC5)s4)c3)C(=O)[C@H]3CC[C@H](OC(=O)N4CC(O)C4)CC3)CC2)nc1C [Compound 7.11, trans-4-((3-(2-Cyclopropylthiazol-5-yl)phenyl)((trans-4-(5-methoxy-6-methylpyridin-2-yl)cyclohexyl)methyl)carbamoyl)cyclohexyl 3-hydroxyazetidine-1-carboxylate]
250 to 1000	COc1ccc([C@H]2CC[C@H](CN(c3cc(-c4coc(C5CC5)n4)ccn3)C(=O)[C@H]3CC[C@H](OC(=O)N4CC(CC(=O)O)C4)CC3)CC2)nc1C [Compound 7.86, 2-(1-(((trans-4-((4-(2-Cyclopropyloxazol-4-yl)pyridine-2-yl) ((trans-4-(5-methoxy-6-methylpyridin-2-yl)cyclohexyl)methyl)carbamoyl)cyclohexyl)oxy)carbonyl)azetidin-3-yl)acetic acid]
≤ 250	COc1ccc([C@H]2CC[C@H](CN(c3cccc(-c4cnn(C5CC5)c4)c3)C(=O)[C@H]3CC[C@H](C(=O)OC(C)C)CC3)CC2)cc1C [Compound 22.01, trans-Isopropyl 4-((3-(1-cyclopropyl-1H-pyrazol-4-yl)phenyl)((trans-4-(4-methoxy-3-methylphenyl)cyclohexyl)methyl)carbamoyl) cyclohexanecarboxylate]
≤ 250	COc1ccc([C@H]2CC[C@H](CN(c3cccc(-c4cnc(C5CC5)s4)c3)C(=O)[C@H]3CC[C@H](CC(=O)O)CC3)CC2)nc1C [Compound 20.03, 2-(trans-4-((3-(2-Cyclopropylthiazol-5-yl)phenyl)((trans-4-(5-methoxy-6-methylpyridin-2-yl)cyclohexyl)methyl)carbamoyl)cyclohexyl)acetic acid]
≤ 250	COc1ccc([C@H]2CC[C@H](CN(c3cc(-c4coc(C5CC5)n4)ccn3)C(=O)[C@H]3CC[C@H](OC(=O)N4CC(N(C)C)C4)CC3)CC2)nc1C [Compound 7.79, trans-4-((4-(2-Cyclopropyloxazol-4-yl)pyridine-2-yl)((trans-4-(5-methoxy-6-methylpyridin-2-yl)cyclohexyl)methyl)carbamoyl)cyclohexyl 3-(dimethylamino)azetidine-1-carboxylate]
≤ 250	COc1ccc([C@H]2CC[C@H](CN(c3cc(-c4coc(C5CC5)n4)ccn3)C(=O)[C@H]3CC[C@H](OC(=O)NC4CCN(C)CC4)CC3)CC2)nc1C [Compound 6.79, trans-4-((4-(2-Cyclopropyloxazol-4-yl)pyridine-2-yl)((trans-4-(5-methoxy-6-methylpyridin-2-yl)cyclohexyl)methyl)carbamoyl)cyclohexyl (1-methylpiperidin-4-yl)carbamate]
≤ 250	COc1ccc([C@H]2CC[C@H](CN(c3cccc(-c4cnn(C(C)C)c4)c3)C(=O)[C@H]3CC[C@H](OC(=O)N4CC(O)C4)CC3)CC2)cc1C#N [Compound 7.20, trans-4-(((trans-4-(3-Cyano-4-methoxyphenyl)cyclohexyl)methyl)(3-(1-isopropyl-1H-pyrazol-4-yl)phenyl)carbamoyl)cyclohexyl 3-hydroxyazetidine-1-carboxylate]

Structure (SMILES)	EC50 [nM]
COc1ccc([C@H]2CC[C@H](CN(c3cccc(-c4cnn(C5CC5)c4)c3)C(=O)[C@H]3CC[C@H](OC(=O)N4CC(N(C)C(=O)OC(C)(C)C)C4)CC3)CC2)cc1C [Compound 7.36, trans-4-((3-(1-Cyclopropyl-1H-pyrazol-4-yl)phenyl)((trans-4-(4-methoxy-3-methylphenyl)cyclohexyl)methyl)carbamoyl)cyclohexyl 3-((tert-butoxycarbonyl)(methyl)amino) azetidine-1-carboxylate]	≤ 250
